From patent US10376481B2, “Compounds and methods for inhibiting NHE-mediated antiport in the treatment of disorders associated with fluid retention or salt overload and gastrointestinal tract disorders” (ARDELYX, INC, priority 2012, dated 2019)

Experiments:
[1] = tested on: absorption of sodium from the intestinal lumen; test: Inhibition of intestinal sodium absorption: rat urinary sodium and fecal form 16 h post-dose; assay type: in vivo, Sprague-Dawley rats; details: for response vs control in vivo at 10 mg/kg / response vs control in vivo at 3 mg/kg: urine 16 h post-dose, read-out: uNa Result, uNa (% of vehicle); for FFS (fecal form score): 16 h post-dose, scale 1-5, group average
Experimental: Urinary sodium concentration and fecal form were measured to assess the ability of selected example compounds to inhibit the absorption of sodium from the intestinal lumen. Eight-week old Sprague-Dawley rats were purchased from Charles River Laboratories (Hollister, Calif.), were housed 2 per cage, and acclimated for at least 3 days before study initiation. Animals were fed Harlan Teklad Global 2018 rodent chow (Indianapolis, Ind.) and water ad libitum throughout the study and maintained in a standard light/dark cycle of 6 AM to 6 PM. On the day of the study, between 4 PM and 5 PM, a group of rats (n=6) were dosed via oral gavage with test compound or vehicle (water) at a volume of 10 mL/kg. After dose administration animals were placed in individual metabolic cages where they were also fed the same chow in meal form and watered ad libitum. At 16 h post-dose, the urine samples were collected and fecal form was assessed by two independent observations. Fecal forms were scored according to a common scale associated with increasing fecal water to the wettest observation in the cage's collection funnel (1, normal pellet; 2, pellet adhering to sides of collection funnel due to moisture; 3, loss of normal pellet shape; 4, complete loss of shape with a blotting pattern; 5, liquid fecal streams evident). A rat's fecal form score (FFS) was determined by averaging both observational scores for all rats within a group (n=6). The vehicle group average was 1. For urine samples, the volumes were determined gravimetrically and centrifuged at 3,600×g. The supernatants were diluted 100-fold in deionized Milli-Q water then filtered through a 0.2 μm GHP Pall AcroPrep filter plate (Pall Life Sciences, Ann Arbor, Mich.) prior to analysis by ion chromatography. Ten microliters of each filtered extract was injected onto a Dionex ICS-3000 ion chromatograph system (Dionex, Sunnyvale, Calif.). Cations were separated by an isocratic method using 25 mM methanesulfonic acid as the eluent on an IonPac CS12A 2 mm i.d.×250 mm, 8 μm particle size cation exchange column (Dionex). Sodium was quantified using standards prepared from a cation standard mix containing Li^+, Na^+, NH4^+, K^+, Mg^2+, and Ca^2+ (Dionex). The mean mass of sodium urinated for every group in the 16 h period was determined with the vehicle group usually urinating approximately 21 mg sodium. The urine Na (uNa) for rats in the test groups were expressed as a percentage of the vehicle mean and the means were compared to that of the vehicle group by utilizing a one-way analysis of variance coupled with a Dunnett's post hoc test.

human NHE3 = target: T1, human NHE3 (Homo sapiens, UniProt P48764); test: Cell-based assay of NHE-3 activity (human NHE3 inhibition assay); parameters: expressed in transfected cells; host or cells: Opossum kidney (OK) cells (ATCC), electroporated; details: OK cells with human NHE-3 gene, BCECF pH recovery, 0-30 μM test compound; for IC50: read-out: Human NHE3 pIC50 (converted)
T1 sequence (P48764 26-834): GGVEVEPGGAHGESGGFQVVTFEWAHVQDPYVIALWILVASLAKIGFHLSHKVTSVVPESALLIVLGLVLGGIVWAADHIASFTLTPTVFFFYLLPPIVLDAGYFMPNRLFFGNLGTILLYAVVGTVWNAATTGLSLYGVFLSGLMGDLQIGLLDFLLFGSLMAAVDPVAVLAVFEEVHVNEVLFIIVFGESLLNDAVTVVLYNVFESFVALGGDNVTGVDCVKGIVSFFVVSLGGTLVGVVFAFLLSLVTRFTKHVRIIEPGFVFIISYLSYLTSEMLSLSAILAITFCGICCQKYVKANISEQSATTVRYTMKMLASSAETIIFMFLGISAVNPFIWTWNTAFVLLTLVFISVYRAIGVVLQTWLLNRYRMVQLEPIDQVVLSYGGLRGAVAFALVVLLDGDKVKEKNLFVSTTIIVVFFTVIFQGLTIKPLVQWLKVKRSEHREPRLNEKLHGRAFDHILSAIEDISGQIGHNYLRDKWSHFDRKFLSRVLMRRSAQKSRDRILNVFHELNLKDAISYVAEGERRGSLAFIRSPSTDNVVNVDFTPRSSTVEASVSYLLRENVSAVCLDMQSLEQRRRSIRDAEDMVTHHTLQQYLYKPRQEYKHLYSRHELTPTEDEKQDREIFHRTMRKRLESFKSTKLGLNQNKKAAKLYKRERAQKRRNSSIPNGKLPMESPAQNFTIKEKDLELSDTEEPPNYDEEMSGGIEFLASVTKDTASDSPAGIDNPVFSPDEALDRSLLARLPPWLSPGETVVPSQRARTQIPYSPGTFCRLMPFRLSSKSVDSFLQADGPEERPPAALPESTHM
Experimental: Rat or human NHE-3-mediated Na^+-dependent H^+ antiport was measured using a modification of the pH sensitive dye method originally reported by Paradiso (Proc. Natl. Acad. Sci. USA. (1984) 81(23): 7436-7440). Opossum kidney (OK) cells were obtained from the ATCC and propagated per their instructions. The rat NHE-3 gene (GenBank M85300) or the human NHE-3 gene (GenBank NM_004174.1) was introduced into OK cells via electroporation, and cells were seeded into 96 well plates and grown overnight. Medium was aspirated from the wells, cells were washed twice with NaCl-HEPES buffer (100 mM NaCl, 50 mM HEPES, 10 mM glucose, 5 mM KCl, 2 mM CaCl2, 1 mM MgCl2, pH 7.4), then incubated for 30 min at room temperature with NH4Cl-HEPES buffer (20 mM NH4Cl, 80 mM NaCl, 50 mM HEPES, 5 mM KCl, 2 mM CaCl2, 1 mM MgCl2, pH 7.4) containing 5 μM bis(acetoxymethyl) 3,3′-(3′,6′-bis(acetoxymethoxy)-5-((acetoxymethoxy)carbonyl)-3-oxo-3H-spiro[isobenzofuran-1,9′-xanthene]-2′,7′-diyl)dipropanoate (BCECF-AM). Cells were washed twice with Ammonium free, Na^+-free HEPES (100 mM choline, 50 mM HEPES, 10 mM glucose, 5 mM KCl, 2 mM CaCl2, 1 mM MgCl2, pH 7.4) and incubated in the same buffer for 10 minutes at room temperature to lower intracellular pH. […] Initial rates were plotted as the average 2 or more replicates, and pIC50 values were estimated using GraphPad Prism.

Structure (SMILES) | response vs control in vivo at 10 mg/kg ([1]; oral gavage 10 mg/kg) | IC50 (human NHE3) | other results
O=C(NCCOCCOCCOCCNS(=O)(=O)c1ccc(O[C@H]2c3ccccc3C[C@@H]2N2CCCCC2)cc1)c1ccc(C(=O)NCCOCCOCCOCCNS(=O)(=O)c2ccc(O[C@H]3c4ccccc4C[C@@H]3N3CCCCC3)cc2)cc1 [Example 34] | > 75% | < 0.1 µM | 
CN(C)[C@H]1Cc2c(Cl)cc(Cl)cc2[C@@H]1Oc1ccc(S(=O)(=O)NCCOCCOCCNC(=O)CCC(C)(CCC(=O)NCCOCCOCCNS(=O)(=O)c2ccc(O[C@H]3c4cc(Cl)cc(Cl)c4C[C@@H]3N(C)C)cc2)NC(=O)CCC(=O)O)cc1 [Example 12, 1-(4-((1S,2S)-4,6-dichloro-2-(dimethylamino)-2,3-dihydro-1H-inden-1-yloxy)phenylsulfonamido)-13-(3-(2-(2-(2-(4-((1S,2S)-4,6-dichloro-2-(dimethylamino)-2,3-dihydro-1H-inden-1-yloxy)phenylsulfonamido)ethoxy)ethoxy)ethylamino)-3-oxopropyl)-13-methyl-10,15-dioxo-3,6-dioxa-9,14-diazaoctadecan-18-oic Acid] |  | < 0.1 µM | response vs control in vivo at 3 mg/kg ([1]; oral gavage 3 mg/kg): 35 to 75%
CN(C)[C@H]1Cc2c(Cl)cc(Cl)cc2[C@@H]1Oc1ccc(S(=O)(=O)NCCOCCOCCNC(=O)CCC(=O)NCCOCCOCCNS(=O)(=O)c2ccc(O[C@H]3c4cc(Cl)cc(Cl)c4C[C@@H]3N(C)C)cc2)cc1 [Example 8, N1,N4-bis(2-(2-(2-(4-((1S,2S)-4,6-dichloro-2-(dimethylamino)-2,3-dihydro-1H-inden-1-yloxy)phenylsulfonamido)ethoxy)ethoxy)ethyl)succinamide] |  | < 0.1 µM | response vs control in vivo at 3 mg/kg ([1]; oral gavage 3 mg/kg): 35 to 75%
N[C@@H]1CCCN([C@H]2Cc3ccccc3[C@@H]2Oc2ccc(S(=O)(=O)NCCOCCOCCNC(=O)NCCCCNC(=O)NCCOCCOCCNS(=O)(=O)c3ccc(O[C@H]4c5ccccc5C[C@@H]4N4CCC[C@@H](N)C4)cc3)cc2)C1 [Example 28] |  | 0.1 to 10 µM | 
O=C(NCCCCNC(=O)NCCOCCOCCNS(=O)(=O)c1ccc(O[C@H]2c3cc(Cl)ccc3C[C@@H]2N2CCCCC2)cc1)NCCOCCOCCNS(=O)(=O)c1ccc(O[C@H]2c3cc(Cl)ccc3C[C@@H]2N2CCCCC2)cc1 [Example 18] |  | < 0.1 µM | 
O=C(NCCCCNC(=O)NCCOCCOCCNS(=O)(=O)c1ccc(O[C@H]2c3ccccc3C[C@@H]2N2CC[C@@H](O)C2)cc1)NCCOCCOCCNS(=O)(=O)c1ccc(O[C@H]2c3ccccc3C[C@@H]2N2CC[C@@H](O)C2)cc1 [Example 31] |  | < 0.1 µM | 
O=C(NCCCCNC(=O)NCCOCCOCCNC(=O)Nc1ccc(O[C@H]2c3ccccc3C[C@@H]2N2CCCCC2)cc1)NCCOCCOCCNC(=O)Nc1ccc(O[C@H]2c3ccccc3C[C@@H]2N2CCCCC2)cc1 [Example 38] |  | < 0.1 µM | FFS (fecal form score) ([1]; oral gavage 3 mg/kg): 1; response vs control in vivo at 3 mg/kg ([1]; oral gavage 3 mg/kg): > 75%
NC(CCC(=O)NCCOCCOCCOCCNS(=O)(=O)c1ccc(O[C@H]2c3ccccc3C[C@@H]2N2CCCCC2)cc1)(CCC(=O)NCCOCCOCCOCCNS(=O)(=O)c1ccc(O[C@H]2c3ccccc3C[C@@H]2N2CCCCC2)cc1)CCC(=O)NCCOCCOCCOCCNS(=O)(=O)c1ccc(O[C@H]2c3ccccc3C[C@@H]2N2CCCCC2)cc1 [Example 10, 4-amino-4-(13-oxo-1-(4-((1S,2S)-2-(piperidin-1-yl)-2,3-dihydro-1H-inden-1-yloxy)phenylsulfonamido)-3,6,9-trioxa-12-azapentadecan-15-yl)-N1,N7-bis(2-(2-(2-(2-(4-((1S,2S)-2-(piperidin-1-yl)-2,3-dihydro-1H-inden-1-yloxy)phenylsulfonamido)ethoxy)ethoxy)ethoxy)ethyl)heptanediamide] |  | < 0.1 µM | 
O=C(NCCOCCOCCNS(=O)(=O)c1ccc(O[C@H]2c3ccccc3C[C@@H]2N2CCCCC2)cc1)[C@H](O)[C@@H](O)C(=O)NCCOCCOCCNS(=O)(=O)c1ccc(O[C@H]2c3ccccc3C[C@@H]2N2CCCCC2)cc1 [Example 32] | > 75% | < 0.1 µM | 
CC(N)(CCC(=O)NCCOCCOCCNS(=O)(=O)c1ccc(O[C@H]2c3ccccc3C[C@@H]2N2CCCCC2)cc1)CCC(=O)NCCOCCOCCNS(=O)(=O)c1ccc(O[C@H]2c3ccccc3C[C@@H]2N2CCCCC2)cc1 [Example 37] | 35 to 75% | < 0.1 µM | FFS (fecal form score) ([1]; oral gavage 10 mg/kg): 1
O=C(NCCCCNC(=O)NCCOCCOCCNS(=O)(=O)c1ccc(O[C@H]2c3ccccc3C[C@@H]2N2CCCC2)cc1)NCCOCCOCCNS(=O)(=O)c1ccc(O[C@H]2c3ccccc3C[C@@H]2N2CCCC2)cc1 [Example 19] | 35 to 75% | > 10 µM | 
CN(C)[C@H]1Cc2c(Cl)cc(Cl)cc2[C@@H]1Oc1ccc(S(=O)(=O)NCCOCCOCCNC(=O)Nc2ccc(NC(=O)NCCOCCOCCNS(=O)(=O)c3ccc(O[C@H]4c5cc(Cl)cc(Cl)c5C[C@@H]4N(C)C)cc3)cc2)cc1 [Example 2, (S,S)—N,N′-(2,2′-(2,2′-(2,2′-(1,4-phenylenebis(azanediyl))bis(oxomethylene)bis(azanediyl)bis(ethane-2,1-diyl))bis(oxy)bis(ethane-2,1-diyl))bis(oxy)bis(ethane-2,1-diyl))bis(4-((1S,2S)-4,6-dichloro-2-(dimethylamino)-2,3-dihydro-1H-inden-1-yloxy)benzenesulfonamide)] |  |  | Human NHE3 pIC50 (human NHE3): C (NHE3 pIC50 >7)
O=C(NCCOCCOCCOCCNS(=O)(=O)c1ccc(O[C@H]2c3ccccc3C[C@@H]2N2CCCCC2)cc1)c1cccc(C(=O)NCCOCCOCCOCCNS(=O)(=O)c2ccc(O[C@H]3c4ccccc4C[C@@H]3N3CCCCC3)cc2)c1 [Example 35] | > 75% | < 0.1 µM | 
